Among the data in the METLIN SMRT retention time set (Domingo-Almenara et al. 2019) are RP-LC retention time values, retold here.

The structures appear in SMILES notation.

The series is described as follows: gradient 5% acetonitrile 3 min, to 50% in 2 min, to 85% in 15 min, held 3 min, 100 µL/min. The conditions noted are these: column: Zorbax Extend-C18 2.1 x 50 mm; eluents: water / acetonitrile, 0.1% formic acid. In outline: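 Values are retention times taken from adduct peaks that software picked and an analyst inspected. The pure standards were run as mixtures of ~100 molecules on HPLC linked to a quadrupole time-of-flight mass spectrometer, in positive and negative ionization mode. A Zorbax Extend-C18 column (2.1 × 50 mm, 1.8 μm) was used at 100 μL/min with water and acetonitrile, each including 0.1% formic acid.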
`COc1ccc(C(=O)Nc2cccn3nc(C(C)C)nc23)cc1` came in with an RP-LC retention time of 873 s.

Compound `COc1ccc(NC(=O)CCC2CCN(c3cc(NC4CC4)ncn3)CC2)c(OC)c1` yielded an RP-LC retention time of 688 s.

The compound `O=C(Nc1nc2ccccc2[nH]1)c1ccc(Br)cc1` returned an RP-LC retention time of 710 s.

The compound `Cc1nn(C(C)C(=O)Nc2cc(F)ccc2F)c(=O)c2c(-n3cccc3)n(-c3ccccc3)nc12` (stereo unspecified) yielded an RP-LC retention time of 1130 s.

As for `CCCCNC(=O)C1CC(=O)N(CCc2c[nH]c3ccc(Cl)cc23)C1` (stereo unspecified), the RP-LC retention time was determined as 761 s.

For `Cc1cccc(NC(=O)NCCn2c(C(F)(F)F)nc3cccnc32)c1`, the RP-LC retention time worked out at 761 s.

In turn, `COc1ccc(-c2c(C(=O)NCCCN3CCOCC3)nc3ccccn23)cc1` gave an RP-LC retention time of 594 s.

The compound `CCC1Oc2ccc(S(=O)(=O)N3CCC(C(=O)NCc4ccc(C)cc4)CC3)cc2NC1=O` (stereo unspecified) returned an RP-LC retention time of 963 s.

As for `Cn1cccc1C(=O)N1CCC2(CC1)NC(=O)N(Cc1ccc(Cl)cc1)C2=O`, the RP-LC retention time amounted to 817 s.

`O=C(c1cccc(N2CCNC(c3ccccc3)C2)n1)N1CCCCC1` (stereo unspecified) gave an RP-LC retention time of 615 s.

Take `Cc1cc(C)c2c(=O)n(Cc3nc(-c4ccccc4)oc3C)c(=O)n(C)c2n1`: the RP-LC retention time is 1160 s.

In turn, `CCCN1CCN(C(=O)c2cn(-c3ccc(-c4nc(C(C)(C)C)no4)cn3)cn2)CC1` yielded an RP-LC retention time of 681 s.

In the case of `CC(C)Cn1ccc2c(cc(C(=O)NCc3cc(F)cc(F)c3)n2C)c1=O`, the RP-LC retention time stood at 850 s.

Compound `CCc1ccc(CNC(=O)C2(c3ccc(NC(C)=O)cc3)CCC2)cc1` yielded an RP-LC retention time of 827 s.

With `COc1ccc(CN2C=C(C(=O)OCc3noc(-c4ccc(OC)cc4)n3)C(C)=NS2(=O)=O)cc1`, the RP-LC retention time was 1110 s.

As to `Cc1cc(=O)c2c(=O)[nH][nH]c2[nH]1`, the RP-LC retention time turned out to be 567 s.

On to `Cc1nn(-c2ccc(N3CCOCC3)nn2)c(C)c1CCC(=O)NCCC(C)C`, for which the RP-LC retention time stood at 672 s.

`Cc1ccc(CN2CC(Oc3ccc(-c4noc(-c5cccnc5)n4)cc3)C2)o1` displayed an RP-LC retention time of 691 s.

Regarding `C=CCNC(=O)c1cn(-c2ccc(-c3nc(C(C)(C)C)no3)cn2)cn1`, the RP-LC retention time is 883 s.

Consider `CCC1Oc2ccc(Cl)cc2N(CC(=O)N2CCN(Cc3noc4ccccc34)CC2)C1=O` (stereo unspecified), for which the RP-LC retention time was 865 s.

Consider `Cc1cc(NC2CCCC2)n2nc(-c3ccc(Cl)cc3)c(C)c2n1`, for which the RP-LC retention time worked out at 855 s.

On to `CCCc1noc(-c2nc(-c3ccc(OC)c(OC)c3)no2)n1`, for which the RP-LC retention time was 1050 s.

Consider `Cc1cccc(-n2nc3c(c2-n2cccc2)CN(C(=O)c2snnc2C)C3)c1`, for which the RP-LC retention time was found to be 894 s.

For the compound `CCOC(=O)c1ccccc1NC(=O)CSc1nnc(NC(=O)C(C)(C)C)s1`, the RP-LC retention time is 929 s.

`O=C(NCCc1ccccc1)C1CCN(C(=O)c2ncn3c2COC(c2ccc(Cl)cc2)C3)CC1` (stereo unspecified) registered an RP-LC retention time of 815 s.

Consider `CCCCCCCNCc1ccc2c(c1)n(C)c(=O)n2C`, for which the RP-LC retention time is 641 s.

`Cc1ccc(Cl)cc1NC(=O)N1C[C@@H](F)C[C@H]1C(=O)N1CCCCC1` gave an RP-LC retention time of 746 s.

Regarding `COC(=O)c1ccc2c(=O)n(-c3ccc(OC)c(OC)c3)c(N3CCCC3)nc2c1`, the RP-LC retention time was 751 s.

Compound `Cc1ccc(CNC2=NCCNC23CCN(S(=O)(=O)c2ccc(F)cc2)CC3)cc1` registered an RP-LC retention time of 733 s.

For `Cc1nn(-c2ccccc2)c2c1N(CCCC(=O)NCCC(C)C)C(=O)CS2`, the RP-LC retention time came out at 657 s.

In turn, `Cc1ccc2c(=O)c(C(=O)N3CCCCC3)cn(CC(=O)NCc3ccccc3)c2n1` displayed an RP-LC retention time of 753 s.

In turn, `O=C(NCc1cccs1)C1CN(C(=O)c2cccs2)CC12CCCCC2` (stereo unspecified) displayed an RP-LC retention time of 856 s.

`COc1cc(OC)c(NC(=O)Cn2ccc3ccc(-c4nnc(C)o4)cc32)cc1Cl` had an RP-LC retention time of 859 s.

For `CCOc1ccc(NC(=O)N2CCC(C(=O)NCc3csc(C)n3)CC2)cc1`, the RP-LC retention time came out at 652 s.

In the case of `CCCn1cc(CCNC(=O)Nc2cc(F)c(F)c(F)c2)c2cccnc21`, the RP-LC retention time came to 866 s.

Regarding `O=c1oc2cc(O)cc(O)c2c2c1CCCC2`, the RP-LC retention time is 708 s.

`O=C(Cc1nnc2c(-c3nc(C4CC4)no3)cccn12)NC1CCCCCC1` returned an RP-LC retention time of 720 s.

`CCC(NC(=O)C1CCN(c2cncnc2N2CCCCC2)CC1)c1cccs1` (stereo unspecified) returned an RP-LC retention time of 706 s.

`Cc1ccsc1C(=O)N1CCc2cc(-c3ccno3)ccc21` showed an RP-LC retention time of 924 s.

In turn, `CC(C)Oc1ccccc1CN1C[C@@H](CO)[C@H](c2ccncc2)C1` showed an RP-LC retention time of 569 s.

Consider `Cc1noc(C)c1-c1ccc(S(=O)(=O)N2CCC3(CC2)OCCO3)cc1`, for which the RP-LC retention time came out at 853 s.

`CC1CCCCN1CCCNC(=O)CCCn1c(=O)c2cccn2c2ccc(F)cc21` (stereo unspecified) displayed an RP-LC retention time of 639 s.

`CCc1nc(N2CCC(C(=O)NCc3ccc(F)c(Cl)c3)CC2)c2c(C)scc2n1`: the RP-LC retention time is 1100 s.

The compound `CCOc1cccc(C2c3[nH]c4ccccc4c3CCN2C(=O)C2CCC2)c1` (stereo unspecified) returned an RP-LC retention time of 1200 s.

In the case of `CCNC(=O)c1cc(-c2ccccc2)n[nH]1`, the RP-LC retention time amounted to 668 s.

`O=C(Cc1ccc(NC(=O)c2ccncc2)cc1)NC1CC1` yielded an RP-LC retention time of 547 s.

With `CCc1nnc(-c2ccc3ccn(CC(=O)N4CCN(c5ccccc5)CC4)c3c2)o1`, the RP-LC retention time was found to be 858 s.

The compound `COc1ccc(-c2c(C)noc2NC(C)=O)cc1S(=O)(=O)Nc1cccc(SC)c1` returned an RP-LC retention time of 779 s.

On to `Cc1nnc(-c2nnc(NC(C)C)c3ccccc23)o1`, for which the RP-LC retention time is 602 s.

In turn, `O=C(NC1CCCC1)C1CCc2sc(C(=O)N3CCCC3)cc2C1` (stereo unspecified) gave an RP-LC retention time of 777 s.

As to `CCc1ccc(NC(=O)N2CCC(n3c(-c4ccco4)nc4cccnc43)C2)cc1` (stereo unspecified), the RP-LC retention time was determined as 816 s.

Consider `COc1cccc(NC(=O)N2CCC3(C2)C(=O)N(C)c2ccccc23)c1` (stereo unspecified), for which the RP-LC retention time stood at 760 s.

The compound `O=C(NCCc1c[nH]c2ccccc12)c1nn(-c2ccc(Cl)cc2)nc1CO` gave an RP-LC retention time of 1020 s.

For `Cn1c(=O)n(C2CCN(Cc3ccsc3)CC2)c2ncncc21`, the RP-LC retention time is 552 s.

`CCOc1ccc(C(=O)NCc2noc(-c3ccc(OC)cc3)n2)cc1`: the RP-LC retention time was 876 s.

Take `CCn1c(=O)c(C(=O)NCCCc2ccccc2)nc2cccnc21`: the RP-LC retention time was 586 s.

`O=C(Nc1nc(-c2ccccc2)cs1)c1ccncc1`: the RP-LC retention time came out at 734 s.

Regarding `CCOc1cccc(-c2noc(Cn3c(=O)n(Cc4cccc(OC)c4)c(=O)c4sccc43)n2)c1`, the RP-LC retention time amounted to 1150 s.

Compound `COc1ccc(C2CC(=O)c3cnc(N4CCN(c5ccccn5)CC4)nc3C2)cc1OC` (stereo unspecified) had an RP-LC retention time of 633 s.

For the compound `O=C(NCc1cccnc1-c1ccccc1)c1ccc(Br)cc1`, the RP-LC retention time came out at 686 s.

In turn, `COc1ccc(-n2c(=O)n(C)c(=O)c3cc(C(=O)Nc4ccc(F)c(C)c4)cnc32)cc1` displayed an RP-LC retention time of 955 s.

Take `O=C(NCCCc1ccccc1)C1CCN(C(=O)N2CCOc3ccc(Cl)cc32)CC1`: the RP-LC retention time was determined as 948 s.

For the compound `CCc1ccc(C2=Nc3ccccc3N(CC(N)=O)C(=O)C2)cc1`, the RP-LC retention time was determined as 788 s.

In turn, `CC(C)n1nc(CNC(=O)c2ccc(Br)o2)c2ccccc21` returned an RP-LC retention time of 926 s.

On to `Cc1ccc(C)c(NC(=O)N2CCN(CCn3c(-c4ccncc4)nc4cccnc43)CC2)c1`, for which the RP-LC retention time was 608 s.

The compound `COc1cccc(-c2noc(N3CCCCC3)n2)c1` displayed an RP-LC retention time of 1070 s.

The compound `Cc1cc2n(n1)CCCN2C(=O)CCC(=O)N1CCN(Cc2ccc3c(c2)OCO3)CC1` gave an RP-LC retention time of 577 s.

`CCOc1ccc(-c2csc(Cc3nc(-c4ccc(F)cc4)no3)n2)cc1` gave an RP-LC retention time of 1250 s.

As for `Cc1cccc(CNC(=O)c2cn3cccc(C)c3n2)c1`, the RP-LC retention time came out at 675 s.

As for `COc1cccc(N2C=C(C(=O)N3CCCC3)S(=O)(=O)c3ccccc32)c1`, the RP-LC retention time was found to be 770 s.

Compound `O=C(CCc1nnc2ccc(N3CCOCC3)nn12)N1CCN(c2ccccn2)CC1` returned an RP-LC retention time of 566 s.

Turning to `CCc1cc(=O)n(CC(=O)NC2CCCC2)c(N2CCOCC2)n1`, the RP-LC retention time came out at 647 s.

For the compound `CCNC(=O)c1n[nH]c2c1CC(C(C)(C)C)CC2` (stereo unspecified), the RP-LC retention time is 840 s.

Compound `CCn1nccc1C(=O)N1CC(n2cc(C(=O)N3CCOCC3)nn2)C1` had an RP-LC retention time of 610 s.

Turning to `N#Cc1cccc(C(=O)NC2CCCC(OC(=O)Nc3ccccc3)C2)c1` (stereo unspecified), the RP-LC retention time worked out at 819 s.

`COc1ccc(NC(=O)c2ccc(N3C(=O)CCC3=O)cc2)c([N+](=O)[O-])c1` had an RP-LC retention time of 716 s.

As to `Cn1c(=O)n(C)c2cc(N3CCCCC3)c(NC(=O)NCc3ccc(F)cc3)cc21`, the RP-LC retention time is 659 s.

Compound `CCn1cc(-c2nc(CC(=O)Nc3ccc(C#N)cc3)cs2)c2cccnc21` registered an RP-LC retention time of 879 s.

`O=C(NCCCn1nc(-c2ccncc2)ccc1=O)C1c2ccccc2Oc2ccccc21` showed an RP-LC retention time of 629 s.

Compound `CC(C)(C)NC(=O)c1ccc(-n2cc(CNC(=O)C3CCC3)cn2)cc1` showed an RP-LC retention time of 710 s.

`O=C(NCC1CCN(S(=O)(=O)C2CC2)CC1)Nc1ccccc1C(F)(F)F` registered an RP-LC retention time of 765 s.
